Laboratory results from article PMC10849753, “Antiproliferative activity of platinum(II) and copper(II) complexes containing novel biquinoxaline ligands” (Metallomics: Integrated Biometal Science, 2024).

Columns and labels:
[1] = molecular target: T1, human serum albumin (HSA) (Homo sapiens, UniProt P02768); test: HSA thermal denaturation; type: binding; settings: HSA alone 114°C; 280 nm
Experimental: The HSA thermal decomposition was followed at 280 nm upon increasing the temperature from 30°C to 130°C at a 1°C min^−1 rate from the spectral change. In order to better examine the processes involving the interaction of metal complexes and protein structure, viscometric titration was carried out in the same manner as for the nucleic acid.

[2] = test system: EtBr-bound CT-DNA; test: Fluorescence quenching of EtBr-pretreated CT-DNA (Stern–Volmer); type: binding, calf; set-up: unit not given here; settings: 0 to 160 μM compounds
Experimental: In order to obtain the linear Stern–Volmer quenching constant (Ksv), a Thermo-Scientific Lumina Fluorescence Spectrometer was used to conduct the flourometric measurements of 10 μM ethidium bromide (EtBr)-pretreated CT-DNA solutions in the presence of 0 to 160 μM compounds.[31],[36] The excitation wavelength was adjusted at 478 nm, and emissions ware observed at about 610 nm.

[3] = molecular target: T1, human serum albumin (HSA); test: UV titration with HSA; settings: binding to HSA, 310-340 K
Experimental: The change in the electronic absorption spectrum of the complexes in the presence and the absence of CT-DNA was followed using an HP Agilent8453 Spectrophotometer. During the measurements, the concentration of the compounds was kept constant [Cu(tpbq)Cl2 = 3.0 × 10^−3 M; Cu(ttbq)Cl2 = 0.50 × 10^−3 M; Pt(tpbq)Cl2 = 3.0 × 10^−3 M; Pt(ttbq)Cl2 = 3.0 × 10^−3 M)], while the CT-DNA concentration was changed depending on the R (R=[DNA]/[complex]) value of 0 to 10. […] The optimal incubation time was determined as 30 min for Cu(ttbq)Cl2, 60 min for Pt(tpbq)Cl2, and 45 min for Cu(tpbq)Cl2 and Pt(ttbq)Cl2 at 37°C spectroscopically. […] The optimal incubation time for HSA binding titrations was determined as 30 min for Cu(ttbq)Cl2 and Pt(ttbq)Cl2, and 60 min for Cu(tpbq) Cl2 and Pt(tpbq)Cl2 spectroscopically.[37]

[4] = test system: CHO-K1 cells; test: MTT cell viability assay (non-cancer control); type: cell-based, Chinese hamster
Experimental: Cell culture growth conditions: Selected cancer cell lines from different origins, including human glioblastoma A172 (CRL-1620), LN229 (CRL-2611), U87 (HTB-14) cell lines, human cervix HeLa (ATCC, CCL-2), human breast MDA -231 (HTB-26), human prostate PC-3 (ATCC, CRL-1435), human lung A-549 (CCL-185), and non-cancer Chinese hamster ovary CHOK1 cell line (CCL61) (which was used as control) were purchased from American Type Culture Collection (ATCC, USA). These cultures were grown in Dulbecco's modified Eagle's medium-F12 (DMEM/F12, #D0547, Sigma-Aldrich) supplemented with 5% fetal bovine serum (#10500, Gibco) and 1% antibiotic-antimycotic (#15240, Gibco), and incubated at 37°C and 5% CO2. They were harvested and used for the following assays after reaching 70–80% confluency.
The used cell lines (A172, LN229, U87, HeLa, MDA-231, PC-3, A549, and CHO-K1) were harvested and seeded (6 × 10^3 cells/well) into the 96-well plates and incubated at 37°C and 5% CO2 for 24 h. After that, the synthesized Cu(II) and Pt(II) complexes, at a concentration range of 6.25 to 100 μM in DMEM-F12, were added to the cell monolayers and incubated at 37°C and 5% CO2 for 24, 48, and 72 h. The dose–response relationships of the synthesized complexes were determined by using an MTT colorimetric agent (3-[4,5-dimethylthiazol-2-yl]-2,5-diphenyltetrazolium bromide, #M5655, Sigma-Aldrich), which is reduced by the mitochondrial enzymes of the metabolically active live cells and converted into a purple formazan product. The MTT stock solution was later dissolved in a phosphate buffer solution (PBS, 5 mg/ml, w/v) and, then, 5 μg/ml of MTT in DMEM was added into each well and incubated at 37°C and 5% CO2 for 4 h. DMSO (#D 8418, Sigma-Aldrich), as a dissolving solution for formazan crystals, was added into each well and placed in a shaker for 2 h. The absorbance at a test wavelength of 570 nm and a reference wavelength of 630 nm was measured on a microplate reader.

[5] = molecular target: T1, human serum albumin (HSA); test: HSA fluorescence quenching titration; type: binding; set-up: unit not given here; settings: 1 μM HSA, 0-50 μM complexes
Experimental: Tests involving fluorescence titration were conducted by maintaining the concentration of 1 μM HSA and changing the concentrations of the complexes between 0 and 50 μM in 5 mM Tris HCl buffer. The fluorescence spectral measurements were made at […] to 500 nm after exciting the solution at 280 nm.

[6] = test system: U87 cells; test: In vitro comet assay; type: cell-based, human; settings: U87, 25 and 50 μM, 24 h
Experimental: Commet assay was performed with U87 and HeLa cell lines (4 × 10^4 cells/well) to detect DNA damage in the individual eukaryotic cells, where 25 or 50 μM Cu(II) or Pt(II) complexes were added to the cells and incubated for 24 h. Subsequently, the comet assay was performed as described before.[31] The DNA damage was evaluated by calculating the DNA tail percentage using the following equation: DNA tail % = 100× tailing DNA density/cell DNA density. The assay was repeated twice, and 50 individual cells were involved for each treatment.

[7] = test system: A172, LN229, U87, A549, Hela, PC-3, and MDA-231 cells; test: ROS production, DCFDA assay, all used cell lines; type: cell-based, human; settings: all used cell lines; 6.25 to 100 μM, 24 h
Experimental: The reactive oxygen species (ROS) formation on the selected cell lines upon exposure to the synthesized Cu(II) and Pt(II) complexes was investigated using the oxidation-sensitive dye, 2ʹ,7ʹ-dichlorofluorescein diacetate (DCFDA, #D6883 Sigma-Aldrich). The cell lines (A172, LN229, U87, HeLa, MDA-231, PC-3, A549, and CHO-K1) were seeded (6 × 10^3 cells/well) into the 96-well plates and incubated at 37°C and 5% CO2 for 24 h. After that, the Cu(II) and Pt(II) complexes, at a concentration range of 6.25 to 100 μM, were added to the cell monolayers. Hydrogen peroxide (H2O2), at concentrations from 50 to 500 μM, was utilized as a positive control. The following day, 5 μM of DCFDA in PBS was added to the cell monolayers and, then, the plate was incubated for 30–45 min. Consequently, the fluorescence intensity was measured with 485 nm excitation and 535 nm emission wavelengths using a microplate reader. The fluorescence values of each treatment were normalized to the negative control, including only growth medium without any treatment. The assay was repeated in triplicate.

T1 sequence (P02768 25-609): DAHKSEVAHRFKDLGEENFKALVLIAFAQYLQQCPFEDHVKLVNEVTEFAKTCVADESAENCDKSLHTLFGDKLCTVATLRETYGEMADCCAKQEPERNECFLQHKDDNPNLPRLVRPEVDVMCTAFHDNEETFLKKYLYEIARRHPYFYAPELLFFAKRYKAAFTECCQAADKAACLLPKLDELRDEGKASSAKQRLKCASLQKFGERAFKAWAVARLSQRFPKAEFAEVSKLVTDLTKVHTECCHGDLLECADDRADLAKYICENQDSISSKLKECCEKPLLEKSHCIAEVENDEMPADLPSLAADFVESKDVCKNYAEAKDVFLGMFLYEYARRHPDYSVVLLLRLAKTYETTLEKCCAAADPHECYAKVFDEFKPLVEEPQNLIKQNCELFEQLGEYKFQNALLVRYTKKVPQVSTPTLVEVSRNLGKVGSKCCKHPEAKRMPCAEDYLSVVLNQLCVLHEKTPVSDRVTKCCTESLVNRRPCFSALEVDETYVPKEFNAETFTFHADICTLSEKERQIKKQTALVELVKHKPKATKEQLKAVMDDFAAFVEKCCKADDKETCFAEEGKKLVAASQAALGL

melting point of HSA upon addition of the complex [1] [°C]	ΔG^o (standard Gibbs free energy change) [3] [J]	ΔH^o (standard enthalpy change) [3] [J]	ΔS^o (standard entropy change) [3] [J/K]	KSV (Stern–Volmer quenching constant) [5]	Compound	KSV (Stern–Volmer quenching constant) [2]	IC50 ([4]; CHO-K1, 24 h exposure) [µM]	IC50 ([4]; CHO-K1, 48 h exposure) [µM]	IC50 ([4]; CHO-K1, 72 h exposure) [µM]	genotoxicity (DNA damage, comet) [6]	ROS formation [7]
110	-19800	120800	458.15	0.0059	[Cl][Cu][Cl].c1ccc(-c2nc3ccc(-c4ccc5nc(-c6ccccn6)c(-c6ccccn6)nc5c4)cc3nc2-c2ccccn2)nc1 [Cu(tpbq)Cl2]	0.0105	> 100	> 100	> 100	–	–
111	-27900	53100	258.51	0.0720	[Cl][Cu][Cl].c1csc(-c2nc3ccc(-c4ccc5nc(-c6cccs6)c(-c6cccs6)nc5c4)cc3nc2-c2cccs2)c1 [Cu(ttbq)Cl2]	0.0137	> 100	> 100	> 100	caused DNA damage on the U87 cells at both concentrations	highest increase in the level of ROS formation
109	-31400	22900	174.97	0.0261	[Cl][Pt][Cl].c1ccc(-c2nc3ccc(-c4ccc5nc(-c6ccccn6)c(-c6ccccn6)nc5c4)cc3nc2-c2ccccn2)nc1 [Pt(tpbq)Cl2]	0.0082	> 100	86.6 ± 1.98	77.5 ± 0.87	–	did not induce any ROS formation
105	-28600	33200	198.00	0.0589	[Cl][Pt][Cl].c1csc(-c2nc3ccc(-c4ccc5nc(-c6cccs6)c(-c6cccs6)nc5c4)cc3nc2-c2cccs2)c1 [Pt(ttbq)Cl2]	0.0143	> 100	> 100	> 100	caused DNA damage on the U87 cells at both concentrations	–
